In patent US20170340658A1, “COMBINED USE OF A CHEMOTHERAPEUTIC AGENT AND A CYCLIC DINUCLEOTIDE FOR CANCER TREATMENT” (INVIVOGEN, priority 2014, published 2017):

What was measured:
Panc02 pancreatic tumors = experiment: Orthotopic Panc02 pancreatic tumors in mice, intercalated combinations (Example 8); format: in vivo, mouse; settings: for mean tumor volume: Day 30, CDN 5 mg/kg i.t. Day 9, i.v. Days 16, 23, gemcitabine 100 mg/kg i.p. Days 12, 19, 26; for # Mice with metastases / Average # metastases per mouse: Day 30 post-implantation, CDN 5 mg/kg, gemcitabine 100 mg/kg i.p.
Experimental: • Species evaluated: mouse • Tumor model: Panc02 • Treatment tested: intercalated combinations of a CDN (either CL592, CL614 or CL656) and gemcitabine • Reference compounds: gemcitabine, CL592, CL614 and CL656 • Parameters evaluated: tumor growth, and incidence of metastases
On Day 1, 55 mice (C57/BL6; male; 10 weeks old; 23 g to 25 g) each received an intrapancreatic injection of Panc02 cells (1×10^6 cells in 50 μL serum-free medium).
Day 9: Groups 3 to 8 each received an intratumoral injection of the appropriate CDN (CL592, CL614 or CL656, respectively; 50 μL; 5 mg/kg in 0.9% saline)
Day 12: Group 2 and Groups 6 to 8 each received an intraperitoneal injection of gemcitabine (200 μL; 100 mg/kg in 0.9% saline)
Day 16: Groups 3 to 8 each received an intravenous injection of the appropriate CDN (CL592, CL614 or CL656, respectively; 50 μL; 5 mg/kg in 0.9% saline)
Day 19: Group 2 and Groups 6 to 8 were treated as on Day 12.
Day 23: Groups 3 to 8 were treated as on Day 16.
Day 26: Group 2 and Groups 6 to 8 were treated as on Days 12 and 19.
Day 30: Each mouse was checked for tumor presence and metastases.

Panc02 tumors = experiment: Murine model of orthotopic Panc02 pancreatic tumors (Example 4); format: in vivo, mouse; settings: for INCIDENCE OF METASTASIS / PRE-SACRIFICE MORTALITY: Day 34
Text: • Species evaluated: mouse • Tumor model: Panc02 (murine pancreatic tumor cell line) • Treatments tested: gemcitabine monotherapy, c-AIMP monotherapy, and gemcitabine combined with c-AIMP • Clinical parameters evaluated: tumor volume, incidence of metastasis and mortality • Administration routes evaluated: intravenous (i.v.) or intratumoral (i.t.) injection (depending on experiment) • On Day 1, 30 mice (C57BL/6; male) received an orthotopic injection of Panc02 tumor cells (1×10^6) in their pancreas. The mice were then divided into six groups of five animals. Each group received a different treatment, as outlined below: • Group 1: saline (by i.v. injection) on Days 7, 10, 14, 17, 21 and 24; • Group 2: gemcitabine monotherapy (100 mg/kg; i.p.); on Days 7, 10, 14, 17, 21 and 24; • Group 3: c-AIMP monotherapy (25 mg/kg; i.t.) on Days 7 and 21; • Group 4: c-AIMP monotherapy (25 mg/kg; i.v.) on Days 7, 14 and 21; • Group 5: c-AIMP (25 mg/kg; i.t.) followed (5 h later) by gemcitabine (100 mg/kg; i.p.) on Day 7; and gemcitabine (100 mg/kg; i.p.) on Days 10, 14, 17, 21 and 24; • Group 6: c-AIMP (25 mg/kg; i.v.) followed (5 h later) by gemcitabine (100 mg/kg; i.p.) on Day 7; and gemcitabine (100 mg/kg; i.p.) on Days 10, 14, 17, 21 and 24;
At days 7, 21/24, 28 and 34, the mice were assessed for tumor volume, incidence of metastasis and mortality.

Type I interferons = experiment: Type I interferon induction in sera of CDN-treated mice (Example 3); format: in vivo, mouse; settings: 10 mg/kg i.v., 4 h post-treatment, FIG. 5
Text: (§1) • Species evaluated: mouse • Cyclic dinucleotides tested: CL604, CL606, CL609, CL611 and CL614 • Reference compound: c-AIMP and saline • Cytokines evaluated: IFN-α/β (using RAW ISG54 reporter cells) and IL-6 (by ELISA)
(§2) Twenty-one mice (Swiss; female; mean age: 8 weeks) were divided into seven groups of three: one group served as control (saline) and the other six groups were each treated with a cyclic dinucleotide (either c-AIMP, CL604, CL606, CL609, CL611 or CL614). On Day −7, blood samples for basal cytokine levels were collected from all mice and stored at −20° C. until analysis. On Day 1, the mice were treated with either 200 μL of physiologic serum (containing 0.9% NaCl) or 200 μL of a solution of a cyclic dinucleotide (dose: 10 mg/kg) in physiologic serum (containing 0.9% NaCl), by intravenous (i.v.) injection. Blood samples were collected from the mice at 4 h post-injection, and then stored at −20° C. until analysis. Cytokine induction was measured in the sera from the blood samples.

IL-6 = IL-6 induction in sera of CDN-treated mice, ELISA (Example 3); format: in vivo, mouse; settings: 10 mg/kg i.v., 4 h post-treatment, FIG. 6
Text: Interleukin-6 was quantified using an enzyme-linked immunoassay (ELISA) according to the manufacturer's instructions (R&D Systems).
as §1, §2

DT6606 pancreatic tumors = settings: Day 36 vs pre-treatment tumor volume; CL592 i.t. Day 13, 5 mg/kg i.v. Days 20, 27; gemcitabine 100 mg/kg i.p. Days 16, 23, 30
Experimental: • Tumor line evaluated: DT6606 (Partecke, 2011) • Treatment tested: intercalated combination of CL592 and gemcitabine • Reference compound: gemcitabine • Parameter evaluated: tumor growth
On Day 1, 20 mice (C57/BL6; female; 10 weeks old; 18 g to 22 g) received an intrapancreatic injection of DT6606 cells (5×10^5 cells in 30 μL serum-free medium). One mouse was sacrificed before treatment due to a renal deformation.
The groups were then treated according to the treatment regimen below.
Day 13: Groups 1 and 2 received an intratumoral injection of saline solution (50 μL), and Groups 3 and 4, an intratumoral injection of CL592 (50 μL; 2.5 mg/mL in saline buffer;).
Day 16: Groups 2 and 4 received an intraperitoneal tail injection of gemcitabine (100 μL solution/100 g body mass; 10 mg/mL in saline buffer; dose: 100 mg/kg).
Day 20: Groups 3 and 4 received an intravenous tail injection of CL592 (200 μL; 0.5 mg/mL in saline buffer; dose: 5 mg/kg).
Day 23: Groups 2 and 4 were treated as on Day 16.
Day 27: Groups 3 and 4 were treated as on Day 20.
Day 30: Groups 2 and 4 were treated as on Days 16 and 23.
Day 36: Each mouse was checked for tumor presence. The volume of each observed tumor was measured and the mice were then sacrificed.
Tumor growth (expressed as a percentage) was calculated as follows:
(([tumor volume at day 36]−[pre-treatment tumor volume])/[pre-treatment tumor volume])×100%

PC-1.0 tumors = experiment: Hamster model of orthotopic PC-1.0 pancreatic tumors (Example 5); format: in vivo; settings: gemcitabine monotherapy 50 mg/Kg i.p.
Text: • Species evaluated: hamster • Tumor model: PC-1.0 (hamster pancreatic tumor cell line (Egami, Tomioka, Tempero, Kay, & Pour, 1991)) • Treatments tested: gemcitabine monotherapy, and gemcitabine combined with c-AIMP • Clinical parameters evaluated: tumor volume, incidence of metastasis and mortality • Administration routes evaluated: intravenous (i.v.) vs. intratumoral (i.t.) injection (depending on experiment) for CL592 • On Day 1, 22 hamsters (Golden Syrian) received an orthotopic injection of PC-1.0 tumor cells (1×10^6) in the tail of their pancreas. The hamsters were then divided into four groups of five or six animals. Each group received a different treatment, as outlined below: • Group 1 (n=5) received saline (by i.v. injection) on Days 8, 15 and 22; • Group 2 (n=6): c-AIMP (25 mg/Kg; i.v.) followed by gemcitabine (50 mg/Kg; i.p.) on Day 8; and gemcitabine (50 mg/Kg; i.p.) on Days 15 and 22; • Group 3 (n=6): c-AIMP (25 mg/Kg; i.t.) followed by gemcitabine (50 mg/Kg; i.p.) on Day 8; and gemcitabine (50 mg/Kg; i.p.) on Days 15 and 22; • Group 4 (n=5): gemcitabine monotherapy (50 mg/Kg; i.p.) at Days 8, 15 and 22.
At days 8, 21/24, 28 and 34, the mice were assessed for tumor volume, incidence of metastasis and mortality.

[1] = c-AIMP 25 mg/kg i.t., alone or with gemcitabine 100 mg/kg i.p.
[2] = c-AIMP 25 mg/kg i.v., alone or with gemcitabine 100 mg/kg i.p.
[3] = gemcitabine monotherapy 100 mg/kg i.p.

## Nc1ncnc2c1ncn2C1OC2COP(=O)(S)O[C@@H]3C(COP(=O)(S)O[C@H]2[C@H]1F)OC(n1cnc2c(=O)[nH]cnc21)[C@@H]3F (mixture of isomers) [CL656, c-[2′FdAMP(S)-2′FdIMP(S)]]
Panc02 pancreatic tumors
  mean tumor volume: 340.2 mm^3
  # Mice with metastases: 40% (2/5)
  Average # metastases per mouse: 3

## Nc1ncnc2c1ncn2[C@@H]1O[C@@H]2COP(=O)(O)O[C@H]3[C@@H](O)[C@H](n4cnc5c(=O)[nH]cnc54)O[C@@H]3COP(=O)(O)O[C@H]2[C@H]1O [CL592, c-AIMP]
Panc02 tumors; [1]
  INCIDENCE OF METASTASIS: 0%
  PRE-SACRIFICE MORTALITY: 0%
Panc02 tumors; [2]
  INCIDENCE OF METASTASIS: 0%
  PRE-SACRIFICE MORTALITY: 0%
Panc02 tumors; FIG. 7, c-AIMP 25 mg/kg i.v. or i.t., comparison among all treatments
  reducing tumor growth: most effective ones at reducing tumor growth
Panc02 pancreatic tumors
  mean tumor volume: 231.0 mm^3
  # Mice with metastases: 20% (1/5)
  Average # metastases per mouse: 2

## Nc1ncnc2c1ncn2C1OC2COP(=O)(O)O[C@H]3C(n4cnc5c(=O)[nH]cnc54)OC(COP(=O)(O)O[C@@H]1[C@@H]2O)[C@H]3O (stereo partly drawn) [CL611, (2′,2′)c-AIMP]
Type I interferons
  induction of Type I interferons in sera: all of the tested cyclic dinucleotides except CL611 strongly induced Type I interferons
IL-6
  induction of IL-6 in sera: all of the cyclic dinucleotides except CL611 induced IL-6

## Nc1ncnc2c1ncn2C1OC2COP(=O)(O)O[C@@H]3C(COP(=O)(O)O[C@H]2[C@H]1F)OC(n1cnc2c(=O)[nH]cnc21)[C@@H]3F (stereo partly drawn) [CL614, c-(2′FdAMP-2′FdIMP)]
Panc02 pancreatic tumors
  mean tumor volume: 318.6 mm^3
  # Mice with metastases: 40% (2/5)
  Average # metastases per mouse: 5

## Nc1ccn([C@@H]2O[C@H](CO)[C@@H](O)C2(F)F)c(=O)n1 [gemcitabine, Gemcitabine]
Panc02 tumors; [3]
  INCIDENCE OF METASTASIS: 50%
  PRE-SACRIFICE MORTALITY: 20%
Panc02 tumors; gemcitabine monotherapy 100 mg/kg i.p., listed as GemC
  PRE-SACRIFICE MORTALITY: 20%
DT6606 pancreatic tumors
  mean tumor growth: 22%
PC-1.0 tumors
  INCIDENCE OF METASTASES: 100%
  NUMBER OF METASTASES PER HAMSTER, Hamster 1: 13
  NUMBER OF METASTASES PER HAMSTER, Hamster 2: 15
  NUMBER OF METASTASES PER HAMSTER, Hamster 3: 3
  NUMBER OF METASTASES PER HAMSTER, Hamster 4: 10
  NUMBER OF METASTASES PER HAMSTER, Hamster 5: 5
PC-1.0 tumors; listed as GemC
  INCIDENCE OF METASTASES: 100%
Panc02 pancreatic tumors
  mean tumor volume: 380.7 mm^3
  # Mice with metastases: 88% (7/8)
  Average # metastases per mouse: 13
